# Measurements published in US20250215039A1, “NUCLEOSIDES FOR TREATING CANCER” (PRIMEFOUR THERAPEUTICS, INC., priority 2022, published 2025).
# Read-outs that look alike come from different tables or passages of the source.
# Test system: cancer cell lines
# Test: Cancer cell proliferation activity (CellTiterGlo, 72 h)
# Format: cell-based
# Conditions: 72 h, 72 h, read-out: IC50 cell proliferation
# Procedure, shortened: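 Cells seeded overnight at 37 °C, then dosed with compound at 0.1% final DMSO and incubated 72 h at 37 °C (5% or 10% CO2 by medium).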
smiles,measurement,setting,value
"Nc1nc(F)nc2c1ncn2[C@H]1C[C@H](O)[C@@H](CO)O1 [compound 171, (2R,3S,5R)-5-(6-amino-2-fluoro-9H-purin-9-yl)-2-(hydroxymethyl)tetrahydrofuran-3-ol]",IC50,5637 (bladder),950 nM
same,IC50,CLS439 (bladder),2640 nM
same,IC50,HS729 (muscle),440 nM
same,IC50,J82 (bladder),1810 nM
same,IC50,JAR (placenta),1600 nM
same,IC50,MT3 (breast),230 nM
same,IC50,PANCI (pancreas),5060 nM
same,IC50,PC3 (prostate),280 nM
same,IC50,RD (muscle),960 nM
same,IC50,T24 (bladder),560 nM
same,IC50,"Homo sapiens, 22Rv1, 72 h, 22RV1 (prostate)",2890 nM
same,IC50,"Homo sapiens, 786-0, 72 h, 786O (kidney)",1570 nM
same,IC50,"Homo sapiens, A204, 72 h, A204 (muscle)",190 nM
same,IC50,"Homo sapiens, A549, 72 h, A549 (lung)",1330 nM
same,IC50,"Homo sapiens, A673, 72 h, A673 (bone)",2530 nM
same,IC50,"Homo sapiens, A2780, 72 h, A2780 (ovary)",1670 nM
same,IC50,"Homo sapiens, A-375, 72 h, A375 (skin)",570 nM
same,IC50,"Homo sapiens, A-431, 72 h, A431 (skin)",1240 nM
same,IC50,"Homo sapiens, ACHN, ACHN (kidney)",1050 nM
same,IC50,"Homo sapiens, ASPC1, 72 h, ASPC1 (pancreas)",320 nM
same,IC50,"Homo sapiens, BT-20, 72 h, BT20 (breast)",2120 nM
same,IC50,"Homo sapiens, BXPC-3, 72 h, BXPC3 (pancreas)",430 nM
same,IC50,"Homo sapiens, C-33-A, C33A (endometrial)",410 nM
same,IC50,"Homo sapiens, CAKI-1, 72 h, CAKI1 (kidney)",130 nM
same,IC50,"Homo sapiens, COLO 205, 72 h, COLO205 (colon)",420 nM
same,IC50,"Homo sapiens, COLO-678, 72 h, COLO678 (colon)",630 nM
same,IC50,"Homo sapiens, Ca-Ski, CASKI (endometrial)",990 nM
same,IC50,"Homo sapiens, Caco-2, 72 h, CACO2 (colon)",3520 nM
same,IC50,"Homo sapiens, Calu-6, 72 h, CALU6 (lung)",400 nM
same,IC50,"Homo sapiens, DLD-1, 72 h, DLD1 (colon)",1030 nM
same,IC50,"Homo sapiens, DU-145, 72 h, DU145 (prostate)",340 nM
same,IC50,"Homo sapiens, EFO-21, 72 h, EFO21 (ovary)",460 nM
same,IC50,"Homo sapiens, EJ-28, 72 h, EJ28 (bladder)",1060 nM
same,IC50,"Homo sapiens, Granta-519, 72 h, GRANTA-519 (hematological)",680 nM
same,IC50,"Homo sapiens, HCT-15, 72 h, HCT15 (colon)",2010 nM
same,IC50,"Homo sapiens, HCT-116, 72 h, HCT116 (colon)",1030 nM
same,IC50,"Homo sapiens, HEK293, 72 h, HEK293 (kidney)",3610 nM
same,IC50,"Homo sapiens, HL-60, 72 h, HL-60 (hematological)",230 nM
same,IC50,"Homo sapiens, HT-29, 72 h, HT29 (colon)",700 nM
same,IC50,"Homo sapiens, HT-1080, 72 h, HT1080 (connective tissue)",2790 nM
same,IC50,"Homo sapiens, HeLa, HELA (endometrial)",310 nM
same,IC50,"Homo sapiens, HepG2, 72 h, HEPG2 (liver)",2750 nM
same,IC50,"Homo sapiens, Hs-578T, HS578T (breast)",1640 nM
same,IC50,"Homo sapiens, IGROV-1, 72 h, IGROV1 (ovary)",1280 nM
same,IC50,"Homo sapiens, IMR-90, 72 h, IMR90 (lung)",540 nM
same,IC50,"Homo sapiens, JEG-3, 72 h, JEG3 (placenta)",2570 nM
same,IC50,"Homo sapiens, JIMT-1, 72 h, JIMT1 (breast)",180 nM
same,IC50,"Homo sapiens, K562, 72 h, K-562 (hematological)",5680 nM
same,IC50,"Homo sapiens, Kasumi 1, 72 h, KASUMI-1 (hematological)",60 nM
same,IC50,"Homo sapiens, L-363, 72 h, L-363 (hematological)",920 nM
same,IC50,"Homo sapiens, LoVo, LOVO (colon)",440 nM
same,IC50,"Homo sapiens, MCF7, 72 h, MCF7 (breast)",3060 nM
same,IC50,"Homo sapiens, MDA-MB-231, 72 h, MDAMB231 (breast)",160 nM
same,IC50,"Homo sapiens, MDA-MB-435, 72 h, MDAMB435 (skin)",2470 nM
same,IC50,"Homo sapiens, MDA-MB-436, 72 h, MDAMB436 (breast)",620 nM
same,IC50,"Homo sapiens, MDA-MB-468, 72 h, MDAMB468 (breast)",1440 nM
same,IC50,"Homo sapiens, MG-63, 72 h, MG63 (bone)",1630 nM
same,IC50,"Homo sapiens, MHH-ES-1, 72 h, MHHES1 (bone)",460 nM
same,IC50,"Homo sapiens, MIA PaCa-2, 72 h, MIAPACA2 (pancreas)",2950 nM
same,IC50,"Homo sapiens, MINO, MINO (hematological)",40 nM
same,IC50,"Homo sapiens, MV4-11, 72 h, MV4-11 (hematological)",270 nM
same,IC50,"Homo sapiens, NCI-H23, 72 h, NCI-H23 (lung)",2040 nM
same,IC50,"Homo sapiens, NCI-H82, 72 h, NCIH82 (lung)",1600 nM
same,IC50,"Homo sapiens, NCI-H292, 72 h, NCIH292 (lung)",2330 nM
same,IC50,"Homo sapiens, NCI-H460, 72 h, NCIH460 (lung)",1950 nM
same,IC50,"Homo sapiens, OVCAR-3, 72 h, OVCAR3 (ovary)",350 nM
same,IC50,"Homo sapiens, OVCAR-4, 72 h, OVCAR4 (ovary)",1860 nM
same,IC50,"Homo sapiens, PLC-PRF-5, 72 h, PLCPRF5 (liver)",2840 nM
same,IC50,"Homo sapiens, Panc1005, 72 h, PANC1005 (pancreas)",660 nM
same,IC50,"Homo sapiens, Ramos, RAMOS (hematological)",420 nM
same,IC50,"Homo sapiens, SAOS-2, 72 h, SAOS2 (bone)",110 nM
same,IC50,"Homo sapiens, SF-268, 72 h, SF268 (brain)",3020 nM
same,IC50,"Homo sapiens, SF-295, 72 h, SF295 (brain)",3580 nM
same,IC50,"Homo sapiens, SK-BR-3, 72 h, SKBR3 (breast)",140 nM
same,IC50,"Homo sapiens, SK-HEP1, 72 h, SKHEP1 (liver)",280 nM
same,IC50,"Homo sapiens, SK-LMS-1, 72 h, SKLMS1 (uterus)",3020 nM
same,IC50,"Homo sapiens, SK-MEL-5, 72 h, SKMEL5 (skin; SKMELS [sic] in Table 9E)",1970 nM
same,IC50,"Homo sapiens, SK-MEL-28, 72 h, SKMEL28 (skin)",980 nM
same,IC50,"Homo sapiens, SK-N-AS, SKNAS (brain)",2550 nM
same,IC50,"Homo sapiens, SK-N-SH, SKNSH (brain)",2260 nM
same,IC50,"Homo sapiens, SK-OV-3, 72 h, SKOV3 (ovary)",510 nM
same,IC50,"Homo sapiens, SNB-75, 72 h, SNB75 (brain)",1470 nM
same,IC50,"Homo sapiens, SU-DHL10, 72 h, SU-DHL-10 (hematological)",730 nM
same,IC50,"Homo sapiens, SU-DHL-6, 72 h, SU-DHL-6 (hematological)",980 nM
same,IC50,"Homo sapiens, SW-620, 72 h, SW620 (colon)",680 nM
same,IC50,"Homo sapiens, TE-671, 72 h, TE671 (muscle)",780 nM
same,IC50,"Homo sapiens, THP-1, 72 h, THP-1 (hematological)",130 nM
same,IC50,"Homo sapiens, U2OS, U20S (bone; U2OS in Table 9E)",960 nM
same,IC50,"Homo sapiens, U-87 MG, U87MG (brain)",620 nM
same,IC50,"Homo sapiens, UMUC3, 72 h, UMUC3 (bladder)",970 nM
same,IC50,"Homo sapiens, UO-31, 72 h, UO31 (kidney)",420 nM
same,IC50,"Homo sapiens, WSU-NHL, WSU-NHL (hematological)",340 nM
same,IC50,"NCI-H358M, NCIH358M (lung)",60 nM
same,IC50,"PBMC, PBMC (hematological)",150 nM
same,IC50,"RD-ES, RDES (bone)",820 nM
